US11517598B2 (priority 2016, dated 2022)

Tested on: cytokine, chemokine and IFN stimulated gene expression in 786-0 cells
Format: cell-based, human

## Sodium orthovanadate
  CXCL9 mRNA up-regulation: more than 100,000 fold
  IFNβ mRNA up-regulation: more than 10 fold
  IFNγ expression: not up-regulated at any time-point post infection under any condition tested
  MX2 and IFITM1 mRNA: robustly downregulated as early as 8 h post-infection
  expression of proinflammatory cytokines (CCL8, CCL3, IL6, TNF, IFNβ, CCL5) and type II IFN induced genes (CXCL9, CXCL10, CXCL11): increased expression of a number of proinflammatory cytokines
  genes typically induced by Type I IFN: either unaffected or decreased
